Key:
[1] = Antioxidant activity assessed as ABTS radical scavenging activity by spectrophotometry; type: physicochemical
MCF7 [2] = test: Ratio of curcumin IC50 to compound IC50 for human MCF7 cells after 72 hrs by MTT assay; type: functional
[3] = Antiproliferative activity against human PC3 cells after 72 hrs by MTT assay; type: functional, cell-based; conditions: PC-3, 72 h
[4] = Antiproliferative activity against human SMMC7721 cells after 72 hrs by MTT assay; type: functional, cell-based; conditions: SMMC-7721, 72 h
[5] = Drug metabolism in rat plasma after 24 hrs by HPLC analysis; type: ADME, cell-free; conditions: read-out: Drug metabolism
PC-3 = test: Ratio of curcumin IC50 to compound IC50 for human PC3 cells after 72 hrs by MTT assay; type: functional
[6] = Antioxidant activity assessed as DPPH radical scavenging activity by spectrophotometry; type: physicochemical
SMMC-7721 = test: Ratio of curcumin IC50 to compound IC50 for human SMMC7721 cells after 72 hrs by MTT assay; type: functional
[7] = Antioxidant activity assessed as superoxide radical scavenging activity after 5 mins by nitrotetrazolium blue chloride assay; type: physicochemical
MCF7 [8] = test: Antiproliferative activity against human MCF7 cells after 72 hrs by MTT assay; type: functional, cell-based; conditions: MCF7, 72 h
[9] = Antioxidant activity assessed as ROO. radical scavenging activity by TRAP assay; type: physicochemical
Plasma = test: Stability in rat plasma after 24 hrs by HPLC analysis; type: ADME, cell-free

Row | IC50 [1] | metabolised at 24 h [5] | IC50 [6] | IC50 [7] | IC50 (MCF7 [8]) | IC50 [9] | Stability (Plasma) | Structure (SMILES) | Ratio IC50 (MCF7 [2]) | IC50 [3] | IC50 [4] | Ratio IC50 (PC-3) | Ratio IC50 (SMMC-7721)
1 | 30.2 µM | 11.9% | 9.24 µM | 72.6 µM | 22.5 µM | 44.5 µM | – | COc1cc(/C=C/C(=O)/C=C/c2ccc(O)c(OC)c2)ccc1O | 1.6 | 36.3 µM | 18.4 µM | 1.6 | 1.6
2 | 128 µM | – | 50.1 µM | 193 µM | 26.6 µM | 128 µM | – | CCOc1cc(/C=C/C(=O)/C=C/c2ccc(O)c(OCC)c2)ccc1O | – | 51.4 µM | 19 µM | – | –
3 | 103 µM | – | 41.5 µM | 178 µM | 21.7 µM | 136 µM | – | COc1cc(/C=C/C(=O)/C=C/c2ccc(C)c(C)c2)ccc1O | – | – | 23.4 µM | – | –
4 | 99.5 µM | – | 34.4 µM | 164 µM | 40.3 µM | 118 µM | – | COc1ccc(/C=C/C(=O)/C=C/c2cc(OC)c(OC)c(OC)c2)cc1O | – | 34.9 µM | 11.5 µM | – | –
5 | 105 µM | – | 46.3 µM | 169 µM | 56.5 µM | 123 µM | – | COc1ccc(/C=C/C(=O)/C=C/c2ccc(O)c(OC)c2)cc1O | – | 61.3 µM | 21.6 µM | – | –
6 | 85.7 µM | – | 28.7 µM | 124 µM | 28.9 µM | 96.4 µM | – | COc1cc(/C=C/C(=O)/C=C/c2cc(OC)c(O)c(OC)c2)ccc1O | – | 70.2 µM | 15.1 µM | – | –
7 | 80.6 µM | – | 31.6 µM | 122 µM | 41.9 µM | 97.2 µM | Unstable | CCOc1cc(/C=C/C(=O)/C=C/c2ccc(O)c(OC)c2)ccc1O | – | 82.4 µM | 27.3 µM | – | –
8 | 132 µM | – | 203 µM | 207 µM | 33.3 µM | 286 µM | Unstable | COc1ccc(O)c(/C=C/C(=O)/C=C/c2ccc(C)c(C)c2)c1 | – | 45.5 µM | 23.4 µM | – | –
9 | 292 µM | – | 94.2 µM | 231 µM | 22.2 µM | 182 µM | Unstable | COc1ccc(O)c(/C=C/C(=O)/C=C/c2ccc(OC)c(OC)c2)c1 | – | 31.6 µM | 20.8 µM | – | –
10 | 114 µM | – | 94.6 µM | 214 µM | 40.7 µM | 184 µM | – | COc1ccc(O)c(/C=C/C(=O)/C=C/c2cc(OC)c(OC)c(OC)c2)c1 | – | 39.9 µM | 25.3 µM | – | –
11 | 113 µM | – | 32.6 µM | 156 µM | 52.8 µM | 113 µM | – | COc1cc(/C=C/C(=O)/C=C/c2ccc(C)c(C)c2)cc(OC)c1O | – | 25.3 µM | 13.6 µM | – | –
12 | 36.3 µM | – | 13.5 µM | 80.9 µM | 9.11 µM | 47.8 µM | – | COc1ccc(/C=C/C(=O)/C=C/c2cc(OC)c(O)c(OC)c2)cc1OC | – | 36.9 µM | 24.1 µM | – | –
13 | > 5630 µM | – | > 5630 µM | > 5630 µM | 39.9 µM | > 5630 µM | – | COc1ccc(/C=C/C(=O)/C=C/c2ccc(OC)c(OC)c2)cc1OC | – | 21.4 µM | 14.4 µM | – | –
14 | > 4820 µM | – | > 4820 µM | > 4820 µM | 13.9 µM | > 4820 µM | Unstable | COc1cc(/C=C/C(=O)/C=C/c2cc(OC)c(OC)c(OC)c2)cc(OC)c1OC | – | 42.1 µM | 16.6 µM | – | –
15 | 177 µM | – | 92 µM | 204 µM | 70.4 µM | 193 µM | – | COc1ccc(/C=C/C(=O)/C=C/c2ccc(OC)c(O)c2)cc1O | – | 97.3 µM | 9.68 µM | – | –
16 | 75.1 µM | – | 28.1 µM | 117 µM | 43.6 µM | 70 µM | – | COc1cc(/C=C/C(=O)/C=C/c2cc(OC)c(OC)c(OC)c2)cc(OC)c1O | – | 23.7 µM | 10.9 µM | – | –
17 | 91.3 µM | – | 19.7 µM | 119 µM | 67.1 µM | 82 µM | – | COc1ccc(/C=C/C(=O)/C=C/c2ccc(OC)c(OC)c2)cc1O | – | 53.1 µM | 39.4 µM | – | –
18 | 105 µM | – | 45.4 µM | 167 µM | – | 102 µM | – | O=C1O[C@H]([C@@H](O)CO)C(O)=C1O [ASCORBIC ACID] | – | – | – | – | –
19 | 48.6 µM | 55.3% | 13.5 µM | 89.8 µM | 70.2 µM | 54.4 µM | – | COc1cc(/C=C/C(=O)CC(=O)/C=C/c2ccc(O)c(OC)c2)ccc1O [CURCUMIN] | – | 59 µM | 39.4 µM | – | –
